Test system: COS-1 cells
Experiment: MTT assay (cell viability)
Assay type: cell-based
Conditions: for MTT.1µM / MTT.3µM / MTT.10µM / MTT.30µM: cell viability; for toxicity class in the MTT assay: 24-h exposure, classified at 10 μM

| Compound | MTT.1µM (COS-1 cells) [%] | MTT.3µM (COS-1 cells) [%] | MTT.10µM (COS-1 cells) [%] | MTT.30µM (COS-1 cells) [%] | toxicity class in the MTT assay | MTT.1µM | MTT.3µM | MTT.10µM | MTT.30µM |
| --- | --- | --- | --- | --- | --- | --- | --- | --- | --- |
| CCN(CC)c1ccc(NC(=O)c2c(-c3ccccc3)noc2C)cc1 [Compound 1, N-[4-(Diethylamino)phenyl]-5-methyl-3-phenylisoxazole-4-carboxamide] | 98.55 | 96.23 | 89.96 | 91.57 | toxic (Toxic compounds (cell viability <90%)) | – | – | – | – |
| Cc1onc(-c2ccccc2)c1C(=O)N(C1=NC(C)CS1)c1ccc(Cl)cc1 (stereo not shown) [Compound 2] | – | 105.13 | 107.32 | 87.3 | nontoxic (nontoxic compounds (cell viability >90%)) | – | – | – | – |
| Cc1onc(-c2ccccc2)c1COc1ccc(C(=O)OCCC#N)cc1 [Compound 35a, 2-Cyanoethyl 4-[(5-Methyl-3-phenylisoxazol-4-yl)methoxy]benzoate] | – | – | – | – | most toxic | 83.35 | 72.67 | 66.11 | 61.55 |
| CCN(CC)c1ccc(NC(=O)c2cnsc2)cc1 [Compound 47s] | – | – | – | – | nontoxic (nontoxic compounds (cell viability >90%)) | 103.66 | 95.56 | 92.49 | 105.44 |
| CCC(=O)N(Cc1ccc(N(CC)CC)cc1)c1c(-c2ccccc2)noc1C [Compound 58] | – | – | – | – | most toxic | 99.35 | 82.12 | 76.17 | 63.57 |
| COc1ccc(-c2cc(NC(=O)c3ccc(C(C)(C)C)cc3)n[nH]2)cc1 [Compound 72] | – | – | – | – | nontoxic (nontoxic compounds (cell viability >90%)) | 110.93 | 101.15 | 102.37 | 107.89 |
| N-[4-(Diethylamino)phenyl]-3-methyl-5-(4-methyl-1,2,3-thiadiazol-5-yl)isoxazole-4-carboxamide [Compound 47c] | – | – | – | – | high toxicity | 88.76 | 85.01 | 81.61 | 78.65 |

— publication PMC7076710, “Synthesis, Identification, and Structure–Activity Relationship Analysis of GATA4 and NKX2-5 Protein–Protein Interaction Modulators” (Journal of Medicinal Chemistry, 2019)
